ChEMBL document CHEMBL3774331, “Inhibition of tau aggregation using a naturally-occurring cyclic peptide scaffold” (Eur J Med Chem, 2016)
Calls of active or inactive are those of the source. No cut-off for these calls is given here. Where a SMILES comes first, the peptide text is derived from it. Bridges are numbered along the chain shown (N, C = ends).

Columns and labels:
[1] = Inhibition of TAU derived synthetic hexapeptide AcPHF6 fibril formation at compound:AcPHF6 ratio of 1:1 to 1:64 incubated for 60 mins by thioflavin S fluorescence assay
[2] = Binding affinity to thioflavin S at compound:AcPHF6 ratio of 1:1 incubated for 120 mins by fluorescence assay
[3] = Inhibition of TAU derived synthetic hexapeptide AcPHF6 fibril formation incubated for 120 mins by thioflavin S fluorescence assay
[4] = Binding affinity to thioflavin S at compound:AcPHF6 ratio of 1:1 to 1:64 incubated for 120 mins by fluorescence assay

Row | inhibition [1] | Activity [2] | inhibition [3] | Activity [4] | Compound
1 | Active | Active | – | – | CC[C@H](C)[C@@H]1NC(=O)[C@H](CCC(N)=O)NC(=O)[C@H](C(C)C)NC(=O)CNC(=O)[C@H](CC(=O)O)NC(=O)[C@@H]2CCCN2C(=O)[C@H](C(C)C)NC(=O)[C@H](C)NC(=O)[C@H](Cc2ccccc2)NC(=O)[C@@H]2CSSC[C@H](NC1=O)C(=O)N[C@@H](Cc1ccc(O)cc1)C(=O)N[C@@H](CCCCN)C(=O)N[C@@H](CO)C(=O)N[C@@H]([C@@H](C)CC)C(=O)N1CCC[C@H]1C(=O)N1CCC[C@H]1C(=O)N[C@@H]([C@@H](C)CC)C(=O)N2 (cyclo(AVPDGVQICYKSIPPICF); disulfide 9-17)
2 | Active | – | Dose-dependent effect | inactive | CC[C@H](C)[C@@H]1NC(=O)[C@@H]2CCCN2C(=O)[C@@H]2CCCN2C(=O)[C@H]([C@@H](C)CC)NC(=O)[C@H](CO)NC(=O)[C@H](CCCCN)NC(=O)[C@H]([C@@H](C)O)NC(=O)[C@@H]2CSSC[C@H](NC1=O)C(=O)N[C@@H](Cc1ccccc1)C(=O)N1CCC[C@H]1C(=O)N[C@@H](CC(=O)O)C(=O)NCC(=O)N[C@@H](CCCNC(=N)N)C(=O)N2
